Key:
[1] = test system: cell population A (Mixed Neurons from Healthy Donor) and cell population B (GABAergic Neurons from Healthy Donor), neural cells derived from iPS cells; test: Action potential measurement (MEA, MED64 system) of the cell circuit board with cell populations A and B connected via neurites, and after cutting the neurites, treated with drug (Example 2); assay type: cell-based
Description: Two types of frozen neural cell which are derived from iPS cells (GABAergic Neurons from Healthy Donor and Mixed Neurons from Healthy Donor) and are commercially available from Elixirgen Scientific were suspended in a medium and plated on a board including an electrode of a multi-electrode array (MEA; SCREEN Holdings Co., Ltd.) coated with 0.05% polyethyleneimine ([…]; manufactured by Sigma) and a 80 μg/mL laminin solution (manufactured by Sigma) in advance. Synchronous firing of the neural cells was checked to be induced by formation of a network after 3 weeks of the culture. A cell population containing more excitable cells and presenting synchronous firing in a short cycle was designated as a cell population A, and a cell population containing many suppressor cells and presenting synchronous firing in a long cycle was designated as a cell population B.
FIG. 4 is a diagram illustrating a test flow in Example 1. First, a board 5 to which partition members 8a and 8b, which are made of dimethylpolysiloxane (PDMS), and frame members 9a and 9b are respectively bonded was prepared so that a region including the cell population A (10) and a region including the cell population B (20) are separated. Next, on the board 5, two types of cell suspension each including the cell population A (10) and the cell population B (20) having different electrophysiological behaviors which were obtained in “1.” were plated in the respective regions surrounded by the frame members 9a and 9b while not mixing these cell populations. In a case where an area of the region was as large as more than 10 mm^2, respective cell suspensions were plated using a micropipette. In a case where an area was as small as 10 mm^2 or less, plating could not be performed manually, and therefore respective cell suspensions were plated using an ink jet bioprinter for cell discharge. […]
The cell population A and the cell population B were cultured for 4 weeks in a state in which they were connected via neurites (a state in which a neural network was formed), and action potentials detectable from the electrodes were measured for 5 minutes with an MED64 system (SCREEN Holdings Co., Ltd.). An electrical waveform was analyzed using software, BurstScope included in the MED64 system. […]
For respective cell populations in “2.” which were treated with the drug, action potentials detectable from the electrodes were measured for 5 minutes with the MED64 system. […]
The neurites between the cell population A and the cell population B were then cut as illustrated in FIG. 4. After cutting, the cells were cultured for 10 minutes in a CO2 incubator and stabilized, and then the action potential was measured again. […]

[2] = test system: cell population A (iCell GABANeurons) and cell population B (GABAergic Neurons from Healthy Donor), neural cells derived from iPS cells; test: Action potential measurement (MEA, MED64 system) of the cell circuit board including an inhibitory GABAergic cell population, connected via neurites, treated with drug (Example 4); assay type: cell-based; conditions: 30 μM final concentration, 10 minutes at 37° C.; populations connected via neurites; FIG. 18
Description: A cell circuit board in which the cell population A and the cell population B were disposed to be spaced apart from each other on the board was prepared using the same method as in Example 1 except that frozen neural cells which are derived from iPS cells (iCell GABANeurons) and are commercially available from Cellular Dynamics International were used as the cell population A, and the same cells as in Example 1 (GABAergic Neurons from Healthy Donor) were used as the cell population B.
Using the same method as in Example 1, at the fourth week of the culture, action potentials detectable from the electrodes were measured for 5 minutes in a state in which the cell population A and the cell population B were connected via neurites. A raster plot that visualizes synchronized firing patterns is illustrated in FIG. 17. In addition, FIG. 16 illustrates a raster plot for visualizing firing patterns of respective cell populations cultured by plating on a board alone.
The mixture was allowed to stand for 10 minutes in a CO2 incubator at 37° C.
For respective cell populations in the above section “3.” which were treated with the drug, action potentials detectable from the electrodes were measured for 5 minutes with the MED64 system. The results are illustrated in FIG. 18.

[3] = 10 μM final concentration, 10 minutes at 37° C., populations A and B connected via neurites, FIG. 8
[4] = 10 μM, neurites between A and B cut, 10 minutes stabilization, FIG. 9

Compound	firing pattern of the cell population A (short-cycle firing) [1, 3]	synchronization of the firing pattern of cell population A with cell population B [1, 3]	firing pattern of the cell population B after cutting the neurites [1, 4]	synchronous firing period of the cell population A after cutting the neurites [1, 4]	cycle of the synchronous firing pattern compared with before drug treatment [2]	synchronization between cell population A and cell population B [2]
N[C@H](CCCP(=O)(O)O)C(=O)O [D-AP5, D-(−)-2-amino-5-phosphonopentanoic acid]	firing in a short cycle disappeared	became a firing pattern synchronized in the form of the same cycle and peak as those of the cell population B	does not change	greatly prolonged	–	–
picrotoxin	–	–	–	–	significantly shorter cycle than that before the drug treatment	remained synchronized
